“Also recorded” adds a separate entry of the source. Where no end group is shown, it is not given here.

Assay [1] has as its target T1, α2β3γ2 GABAAR co-expressed with human UT (Homo sapiens, UniProt Q9UKP6).
T1 construct: expressed in transfected cells; host or cells: CHO-K1 stably expressing human UT (pIRES-neo2-UT), transiently nucleofected with GABAAR subunit cDNAs
T1 sequence (Q9UKP6 1-389): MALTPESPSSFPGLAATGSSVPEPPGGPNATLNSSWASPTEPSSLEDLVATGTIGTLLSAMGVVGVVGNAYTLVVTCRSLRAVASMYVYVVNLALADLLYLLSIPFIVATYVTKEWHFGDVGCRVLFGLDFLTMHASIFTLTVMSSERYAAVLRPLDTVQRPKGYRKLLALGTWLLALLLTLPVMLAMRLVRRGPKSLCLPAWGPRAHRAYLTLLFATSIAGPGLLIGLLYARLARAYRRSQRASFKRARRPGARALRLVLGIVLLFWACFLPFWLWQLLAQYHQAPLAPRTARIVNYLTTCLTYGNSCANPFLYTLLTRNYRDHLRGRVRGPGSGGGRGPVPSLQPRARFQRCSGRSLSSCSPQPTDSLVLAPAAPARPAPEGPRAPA
Put plainly: Patch-clamp of Iso-evoked current in CHO-UT co-expressing α2β3γ2 GABAAR (CHO-UT-GABAAR). The format is cell-based. Here is the method: (§1) CHO-K1 cell lines were obtained from American Type Culture Collection (Manassas, VA, USA). The human UT stable CHO (CHO-UT) was generously provided by Dr Christophe Dubessy (Inserm, Rouen University, France) et generated by CHO electroporation with 20 µg pIRES-neo2-UT DNA and 500 µg sterile sonicated salmon sperm DNA using the EasyJect One electroporation system (Equibio, Angleur, Belgium), followed by repetitive rounds of limiting dilution of cells in G-418 (400 µg/ml) for selection. Normal or stable CHO was grown in Ham-F12 medium supplemented with 10% FBS, 1% antibiotic-antimicotic solution and 2 mM glutamine, at 37°C in a humidified incubator with an atmosphere of 5% CO2. The stable CHO-UT medium was supplemented with the antibiotic G-418 (40 µg/ml).
(§2) For transfection, cells were trypsinized (0.05%), triturated in HamF-12 containing 10% FBS media, pelleted by centrifugation, resuspended in 100 µl solution V for nucleofection by an Amaxa Nucleofector Device (Köln, Germany; set to program U-016). Experiments were performed on normal CHO or on the stable CHO-UT cells and transiently transfected with combinations of cDNA encoding α2β3γ2, α2β3γ1, α2β1γ2, α2β3γ1, α2β3, β3γ2 (4 µg of cDNA total/transfection) GABAAR subunits. Cells were seeded on 14-mm poly-L-lysine-coated glass bottom insert dishes at 5×10^5 cells in a volume of 0.5 ml/dish. Cells were incubated overnight at 37°C in a humidified incubator (5% CO2) during 16 h before electrophysiological or immunocytochemical experiments.
(§3) GABAA receptor cDNA clones; α2, β1, β3, γ1 and γ2L engineered into the expression vector pCDM8 ([…], β1, γ2) or pcDNA/Amp (β3, γ1), were generously provided by Dr Wingrove (Merk Sharp and Dohme, Harlow, UK). To obtain β3 ^HA or γ2 ^HA epitope-tagged subunits, β3 or γ2 cDNA was amplified and the PCR product was subcloned using the SalI and NotI sites of pCMV-HA (Table S2) after digestion by the same restriction enzymes.
(§4) The conventional whole-cell configuration of the patch-clamp technique was used to study the GABA-gated currents in astrocytes and granule neurons, UT stably transfected CHO, CHO-UT, and CHO transiently transfected with diverse variants of UT and GABAAR subunits. After 24-h transfection, cell culture coverslips were placed in a small chamber (1.5 ml) on a stage of a right microscope DMLFSA (Leica, Heidelberg, Germany) and superfused continuously with the following bath solution containing (in mM): NaCl, 150; KCl, 2.5; HEPES, 5; CaCl2, 2; MgCl2, 1; glucose, 10 (pH 7.4 adjusted with NaOH). The patch pipettes were fabricated from 1.5 mm (outer diameter) soft glass tubes on a two-step vertical pipette puller (List-Medical, L/M-3P-A, Darmstadt, Germany). […] ATP and GTP were added to the internal solution used to fill electrode just before recording. All recordings were obtained at RT with cells voltage-clamped at −70 mV. The GABAA receptor agonist isoguvacine was prepared in the extracellular solution and was applied to cells by pneumatic pressure ejection. To prevent desenzitization, isoguvacine was more often ejected during 5 s at 2-min intervals. ATP, GTP, or guanosine 5′-O-(2-thiodiphosphate) (GDPβS) were administered through the patch pipette solution. We investigated the effect of competitive inhibition of GDP-GTP exchange by including GDPβS in the pipette solution (in addition to the normal amount of GTP). For GDPβS and the KIC, immediately following patch rupture, GABA current recordings were performed and the experiment was commenced after an equilibration period of 15 min.
All peptide ligands, inhibitors or allosteric modulators of the GABAA receptor function were applied via gravity through a plastic tubing positioned in the vicinity of the cell body in order to maintain a sustained perfusion. In these conditions, drugs could reach the cell of interest after 30 s of perfusion. Isoguvacine was applied focally by pneumatic pressure ejection from a micropipette.
Background: Patch clamp records ionic current or voltage across a cell membrane.

The target in assay [2] is T2, human UT (Homo sapiens, UniProt Q9UKP6).
T2 construct: expressed in transfected cells; host or cells: CHO-K1 electroporated with pIRES-neo2-UT, G-418 selected
T2 sequence (Q9UKP6 1-389): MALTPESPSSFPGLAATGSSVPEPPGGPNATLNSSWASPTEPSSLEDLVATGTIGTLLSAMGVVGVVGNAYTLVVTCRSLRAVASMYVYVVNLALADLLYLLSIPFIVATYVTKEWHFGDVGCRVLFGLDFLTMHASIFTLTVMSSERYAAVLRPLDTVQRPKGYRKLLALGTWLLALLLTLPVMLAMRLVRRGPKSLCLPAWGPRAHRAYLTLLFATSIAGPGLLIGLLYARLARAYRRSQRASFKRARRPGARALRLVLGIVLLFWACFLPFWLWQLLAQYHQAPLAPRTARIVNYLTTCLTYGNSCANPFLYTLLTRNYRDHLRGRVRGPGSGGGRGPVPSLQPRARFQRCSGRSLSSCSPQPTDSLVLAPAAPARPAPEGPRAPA
Particulars: ref [54], [55]; cited from earlier work.

In assay [3] the target is T2, human UT. The assay can be described thus: Fura-2 calcium imaging ([Ca^2+]c) in CHO-UT. The format is cell-based. Here is the method:
as §1
For cell calcium imaging, Fura-2 AM (5 mM, Molecular Probe; Fisher, Cergy-Pontoise, France) was dissolved in 20% pluronic F-127 (w/v, DMSO) and then added to culture medium at final concentrations of 5 µM and 0.02%, with 2.5 mM probenecid (Sigma-Aldrich) respectively. Cells were incubated in the dye solution for 1 h in an humidified atmosphere (37°C, 5% CO2) and then rinsed in the standard extracellular solution used for patch-clamp experiments. For simultaneous measurements of intracellular calcium and chloride-evoked currents in CHO, patch-clamp electrodes were filled with an internal solution containing : KCl, 140; MgCl2, 4; Fura-2-pentoK, 0.25; HEPES, 10; ATP, 1; GTP, 0.1 (pH 7.4 adjusted with KOH). Fluorescence images were acquired with the right microscope DMLFSA (Leica) equipped with a digital CCD camera Coolsnap HQ (Photometrics, Roper scientific, Evry, France). A high-speed scanning polychromatic light source was used for alternate excitations at wavelenghts of 340 and 380 nm. The fluorescence intensities at both wavelenghts (F340 and F380) were mesured every 500 ms. Image acquisition and analysis were obtained with a MetaFluor/Metamorph Imaging System (Roper scientific). The ratio between the two images was proportional to the [Ca^2+]c in the cell under study. Before an experiment, the bath ground level of fluorescence (attributable to autofluorescence and camera noise) was determined and systematically substracted.

Assay [4] deals with α2β3γ2 GABAAR in the absence of UT. The assay can be described thus: Patch-clamp of Iso-evoked current in CHO expressing α2β3γ2 GABAAR without UT. It is filed as cell-based. The settings on record: DMCM 10^−5 M; hUII and URP 10^−8 M; [Orn^5]-URP and palosuran 10^−6 M; Iso 10^−4 M, 2 s; n = 3–18. As for the experimental part:
as §2, §3
as §4, with “min. […]” for “min.”

The target in assay [5] is T3, human urotensin II receptor UT, stably expressed in CHO (CHO-UT) (human) (UniProt Q9UKP6).
T3 sequence: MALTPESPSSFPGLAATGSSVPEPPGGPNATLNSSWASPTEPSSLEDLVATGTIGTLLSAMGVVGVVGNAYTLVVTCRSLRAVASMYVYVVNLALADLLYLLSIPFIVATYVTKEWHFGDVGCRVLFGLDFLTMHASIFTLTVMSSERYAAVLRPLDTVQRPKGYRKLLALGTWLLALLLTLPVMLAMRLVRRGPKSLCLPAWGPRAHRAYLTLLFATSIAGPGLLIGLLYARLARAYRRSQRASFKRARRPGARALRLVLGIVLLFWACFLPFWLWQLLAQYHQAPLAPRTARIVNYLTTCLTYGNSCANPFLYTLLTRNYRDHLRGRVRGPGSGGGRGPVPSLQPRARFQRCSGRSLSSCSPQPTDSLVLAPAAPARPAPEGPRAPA

Assay [6] addresses T3, human urotensin II receptor UT, stably expressed in CHO (CHO-UT) (human). This is another data set of the same source.

Turning to `Cc1cc(NC(=O)NCCN2CCC(O)(Cc3ccccc3)CC2)c2ccccc2n1.O=S(=O)(O)O` [palosuran, 1-[2-(4-benzyl-4-hydroxy-piperidin-1-yl)-ethyl]-3-(2-methyl-quinolin-4-yl) -urea sulfate salt], the “Effect of UT antagonist alone on Iso-evoked current” value in assay [1] (10^−6 M, n = 7–54) is reported as “mimicked the hUII-induced inhibition of the Iso-evoked current; also recorded: mimics the effect of UII by inhibiting the chloride current”. The “Effect on prolonged/irreversible action of hUII during washout on Iso-evoked current” value in assay [1] (antagonist 10^−6 M with hUII) is “abolished the irreversible action of hUII during washout”. The “Affinity toward human UT” value at human UT [2] is on record as “high affinity”. For the same molecule, at human UT [3] (10^−6 M), the “Effect/profile of antagonist on [Ca^2+]c” value is “failed to evoke a [Ca^2+]c rise”. In addition, the “Effect on hUII-induced [Ca^2+]c increase” value on human UT [3] (antagonist 10^−6 M before and during hUII) is “completely blocked the hUII-induced [Ca^2+]c increase; also recorded: counteracts the UII-evoked [Ca^2+]c increase”. The “Effect on Iso-evoked current in the absence of UT” value in assay [4] was “did not modulate the Iso-evoked current”.
Turning to “URP: paralog urotensin II-related peptide sharing the fully conserved C-terminal cyclic CFWKYC core”, in assay [1] (10^−8 M, Iso 10^−4 M, mean ± SEM, hUII n = 54, URP n = 12), the “Inhibition of Iso-evoked current” value was found to be 22.9±3.5%. Moreover, the “Persistence/reversibility of current inhibition during washout” value in assay [1] (10^−8 M, Iso-evoked current) is listed as “slightly recovered during washout; also recorded: triggers a reversible inhibition”. Besides, the “Reversibility of [Ca^2+]c increase during washout” value with human UT [3] (10^−8 M) was “totally recovered after 16-min washout; also recorded: recovered to the basal line level”. The “Increase of the amplitude of baseline [Ca^2+]c” value in the assay with human UT [3] (hUII and URP 10^−8 M, [Orn^5]-URP 10^−6 M, mean from 9 to 25 cells) was found to be 341%. Moreover, in assay [4], the “Effect on Iso-evoked current in the absence of UT” value is reported as “failed to affect the amplitude of the current”.
In assay [5], [Orn^5]-URP (peptide) came in with a [Ca^2+]c increase (Fura-2 imaging) in CHO-UT, [Orn^5]-URP 10^-6 M; behaved as a partial agonist and prevented the sustained effect of hUII on [Ca^2+]c of 265%.
With ACFWKYCV (also: cyclic CFWKYC core, bridge type not given here) [urotensin II-related peptide], the increase of the amplitude of baseline [Ca^2+]c (Fura-2 imaging) in CHO-UT, URP 10^-8 M in the bath; recovered after 16-min washout in assay [5] is 341%. This molecule came in with an inhibition of the isoguvacine-evoked chloride current (whole-cell patch clamp) in CHO-UT co-expressing alpha2beta3gamma2 GABAAR, URP 10^-8 M (n = 12) in assay [6] of 22.9%.

The record behind these values is paper PMC3341351, “Down-Regulation of GABAA Receptor via Promiscuity with the Vasoactive Peptide Urotensin II Receptor. Potential Involvement in Astrocyte Plasticity” (PLoS ONE, 2012).
